Values quoted from earlier work, collected in patent US20150025027A1 (PHARTRIALS PERQUISAS FARMACÊUTICAS LTDA, priority 2012, published 2015).
Values after ≈ are worked out from the molar mass of the structure shown.

Key:
[1] = not given; remark: listed apart in the source
[2] = not given; remark: listed apart in the source
[3] = not given; remark: listed apart in the source
[4] = high-risk, obese population; vs. 10% in comparison group

| Structure (SMILES) | solubility in water | half-life ([1]; in vivo) | log P [2] | weight loss in humans [3] | time to peak plasma concentration ([1]; after oral administration) | time to plasma concentrations in the state of equilibrium ([1]; days of treatment) | share of the dose administered per metabolite ([1]; each of six metabolites) | dose metabolized ([1]; forming six metabolites) | dose administered eliminated through the urine ([1]; in vivo) | oral bioavailability ([1]; oral) | cardiovascular outcomes (AMI, CVA, cardiorespiratory failure or death) in patients receiving the drug [4] |
| --- | --- | --- | --- | --- | --- | --- | --- | --- | --- | --- | --- |
| CC(NC(C)(C)C)C(=O)c1cccc(Cl)c1 (stereo not shown) [Bupropion, 1-(3-chlorophenyl)-2-{(1,1-dimethyl)-amino]-1-propanone] | 312 mg/mL (≈ 1300 mM) | 24 h | 3.6 |  |  |  |  |  |  |  |  |
| CC1(C)OC2CO[C@@]3(COS(N)(=O)=O)OC(C)(C)O[C@H]3C2O1 (stereo partly shown) [Topiramate] | 9.8 mg/mL (≈ 28.9 mM) |  | −0.7 | effective in weight loss | 2 h | 4 days | ≤ 5% | 30% | 70% | 80% |  |
| CC(C)CC(N(C)C)C1(c2ccc(Cl)cc2)CCC1 (stereo not shown) [sibutramine] |  |  |  |  |  |  |  |  |  |  | 11.4% |
